System: skin
Experiment: Cumulative skin irritation test, HRIPT (human repeated insult patch test)
Assay type: in vivo
Parameters: key to skin reactivity (ICDRG criteria): −: Negative (no reaction); ±: Suspicious or slight erythema, etc.; +: Weak reaction (not accompanied by vesicles), erythema, papules; ++: Severe reaction (accompanied by vesicles), erythema, papules, vesicles; +++: Strong reaction, bullae
Conditions: for Number of subjects showing ±, + or ++ reactivity 1st: 1st patch; for Number of subjects showing ±, + or ++ reactivity 2nd: 2nd patch; for Number of subjects showing ±, + or ++ reactivity 3rd: 3rd patch; for Number of subjects showing ±, + or ++ reactivity 4th: 4th patch; for Number of subjects showing ±, + or ++ reactivity 5th: 5th patch; for Number of subjects showing ±, + or ++ reactivity 6th: 6th patch; for Number of subjects showing ±, + or ++ reactivity 7th: 7th patch; for Number of subjects showing ±, + or ++ reactivity 8th: 8th patch; for Number of subjects showing ±, + or ++ reactivity 9th: 9th patch; for Average reactivity: less than 3 = safe
Description: HRIPT (human repeated insult patch test) was performed to evaluate the cumulative skin irritation of quercetin 3-O-[3-O″-(E)-p-coumaroyl][β-D-glucopyranosyl-(1→3)-O-α-L-rhamnopyranosyl-(1→6)-O-β-D-glucopyranoside] and quercetin 3-O-[3-O″-(E)-p-coumaroyl][α-L-rhamnopyranosyl-(1→6)-O-β-D-glucopyranoside] and determine the range of concentration applicable to the skin. Specifically, 15 healthy adult subjects were randomly selected, and 20 μl of a test composition (composition for the skin including an emulsifier, a stabilizer, purified water, etc. in addition to each of the above compounds) containing 0.5% by weight, 1% by weight or 3% by weight of each of the compounds was dropped into each chamber (IQ chamber, Epitest Ltd, Finland) The patch was applied to the upper right side of the back of the subject, and after 24 hours from the application, it was replaced with a new patch. In this way, a total of 9 patches were applied, 3 times a week for 3 weeks. The skin reaction was checked before and after application of each patch. The skin reaction was checked until after 48 hours from the removal of the final patch, and the average reactivity was calculated. The skin reaction was evaluated according to the criteria of the International Contact Dermatitis Research Group (ICDRG). In the above table, “novel substance 31” denotes quercetin 3-O-[3-O″-(E)-p-coumaroyl][β-D-glucopyranosyl-(1→3)-O-α-L-rhamnopyranosyl-(1→6)-O-β-D-glucopyranoside], and “novel substance 32” denotes quercetin 3-O-[3-O″-(E)-p-coumaroyl][α-L-rhamnopyranosyl-(1→6)-O-β-D-glucopyranoside.

[1] = 0.5% by weight, line 1 of 3 (±)
[2] = 0.5% by weight, line 2 of 3 (+)
[3] = 0.5% by weight, line 3 of 3 (++)

Structure (SMILES): CC1OC(OCC2OC(Oc3c(-c4ccc(O)c(O)c4)oc4cc(O)cc(O)c4c3=O)C(O)C(OC(=O)/C=C/c3ccc(O)cc3)C2O)C(O)C(O)C1O [Novel substance 32, quercetin 3-O-[3-O″-(E)-p-coumaroyl][α-L-rhamnopyranosyl-(1→6)-O-β-D-glucopyranoside]]
- Number of subjects showing ±, + or ++ reactivity 1st [1]: 0 number of persons
- Number of subjects showing ±, + or ++ reactivity 1st [2]: 0 number of persons
- Number of subjects showing ±, + or ++ reactivity 1st [3]: 0 number of persons
- Number of subjects showing ±, + or ++ reactivity 2nd [1]: 0 number of persons
- Number of subjects showing ±, + or ++ reactivity 2nd [2]: 0 number of persons
- Number of subjects showing ±, + or ++ reactivity 2nd [3]: 0 number of persons
- Number of subjects showing ±, + or ++ reactivity 3rd [1]: 0 number of persons
- Number of subjects showing ±, + or ++ reactivity 3rd [2]: 0 number of persons
- Number of subjects showing ±, + or ++ reactivity 3rd [3]: 0 number of persons
- Number of subjects showing ±, + or ++ reactivity 4th [1]: 0 number of persons
- Number of subjects showing ±, + or ++ reactivity 4th [2]: 0 number of persons
- Number of subjects showing ±, + or ++ reactivity 4th [3]: 0 number of persons
- Number of subjects showing ±, + or ++ reactivity 5th [1]: 0 number of persons
- Number of subjects showing ±, + or ++ reactivity 5th [2]: 0 number of persons
- Number of subjects showing ±, + or ++ reactivity 5th [3]: 0 number of persons
- Number of subjects showing ±, + or ++ reactivity 6th [1]: 0 number of persons
- Number of subjects showing ±, + or ++ reactivity 6th [2]: 0 number of persons
- Number of subjects showing ±, + or ++ reactivity 6th [3]: 0 number of persons
- Number of subjects showing ±, + or ++ reactivity 7th [1]: 0 number of persons
- Number of subjects showing ±, + or ++ reactivity 7th [2]: 0 number of persons
- Number of subjects showing ±, + or ++ reactivity 7th [3]: 0 number of persons
- Number of subjects showing ±, + or ++ reactivity 8th [1]: 0 number of persons
- Number of subjects showing ±, + or ++ reactivity 8th [2]: 0 number of persons
- Number of subjects showing ±, + or ++ reactivity 8th [3]: 0 number of persons
- Number of subjects showing ±, + or ++ reactivity 9th [1]: 0 number of persons
- Number of subjects showing ±, + or ++ reactivity 9th [2]: 0 number of persons
- Number of subjects showing ±, + or ++ reactivity 9th [3]: 0 number of persons
- Average reactivity (0.5% by weight): 0
- Number of subjects showing ±, + or ++ reactivity 1st (1% by weight, line 1 of 3 (±)): 0 number of persons
- Number of subjects showing ±, + or ++ reactivity 1st (1% by weight, line 2 of 3 (+)): 0 number of persons
- Number of subjects showing ±, + or ++ reactivity 1st (1% by weight, line 3 of 3 (++)): 0 number of persons
- Number of subjects showing ±, + or ++ reactivity 2nd (1% by weight, line 1 of 3 (±)): 0 number of persons
- Number of subjects showing ±, + or ++ reactivity 2nd (1% by weight, line 2 of 3 (+)): 0 number of persons
- Number of subjects showing ±, + or ++ reactivity 2nd (1% by weight, line 3 of 3 (++)): 0 number of persons
- Number of subjects showing ±, + or ++ reactivity 3rd (1% by weight, line 1 of 3 (±)): 0 number of persons
- Number of subjects showing ±, + or ++ reactivity 3rd (1% by weight, line 2 of 3 (+)): 0 number of persons
- Number of subjects showing ±, + or ++ reactivity 3rd (1% by weight, line 3 of 3 (++)): 0 number of persons
- Number of subjects showing ±, + or ++ reactivity 4th (1% by weight, line 1 of 3 (±)): 0 number of persons
- Number of subjects showing ±, + or ++ reactivity 4th (1% by weight, line 2 of 3 (+)): 0 number of persons
- Number of subjects showing ±, + or ++ reactivity 4th (1% by weight, line 3 of 3 (++)): 0 number of persons
- Number of subjects showing ±, + or ++ reactivity 5th (1% by weight, line 1 of 3 (±)): 0 number of persons
- Number of subjects showing ±, + or ++ reactivity 5th (1% by weight, line 2 of 3 (+)): 0 number of persons
- Number of subjects showing ±, + or ++ reactivity 5th (1% by weight, line 3 of 3 (++)): 0 number of persons
- Number of subjects showing ±, + or ++ reactivity 6th (1% by weight, line 1 of 3 (±)): 0 number of persons
- Number of subjects showing ±, + or ++ reactivity 6th (1% by weight, line 2 of 3 (+)): 0 number of persons
- Number of subjects showing ±, + or ++ reactivity 6th (1% by weight, line 3 of 3 (++)): 0 number of persons
- Number of subjects showing ±, + or ++ reactivity 7th (1% by weight, line 1 of 3 (±)): 0 number of persons
- Number of subjects showing ±, + or ++ reactivity 7th (1% by weight, line 2 of 3 (+)): 0 number of persons
- Number of subjects showing ±, + or ++ reactivity 7th (1% by weight, line 3 of 3 (++)): 0 number of persons
- Number of subjects showing ±, + or ++ reactivity 8th (1% by weight, line 1 of 3 (±)): 0 number of persons
- Number of subjects showing ±, + or ++ reactivity 8th (1% by weight, line 2 of 3 (+)): 0 number of persons
- Number of subjects showing ±, + or ++ reactivity 8th (1% by weight, line 3 of 3 (++)): 0 number of persons
- Number of subjects showing ±, + or ++ reactivity 9th (1% by weight, line 1 of 3 (±)): 0 number of persons
- Number of subjects showing ±, + or ++ reactivity 9th (1% by weight, line 2 of 3 (+)): 0 number of persons
- Number of subjects showing ±, + or ++ reactivity 9th (1% by weight, line 3 of 3 (++)): 0 number of persons
- Average reactivity (1% by weight): 0
- Number of subjects showing ±, + or ++ reactivity 1st (3% by weight, line 1 of 3 (±)): 0 number of persons
- Number of subjects showing ±, + or ++ reactivity 1st (3% by weight, line 2 of 3 (+)): 0 number of persons
- Number of subjects showing ±, + or ++ reactivity 1st (3% by weight, line 3 of 3 (++)): 0 number of persons
- Number of subjects showing ±, + or ++ reactivity 2nd (3% by weight, line 1 of 3 (±)): 0 number of persons
- Number of subjects showing ±, + or ++ reactivity 2nd (3% by weight, line 2 of 3 (+)): 0 number of persons
- Number of subjects showing ±, + or ++ reactivity 2nd (3% by weight, line 3 of 3 (++)): 0 number of persons
- Number of subjects showing ±, + or ++ reactivity 3rd (3% by weight, line 1 of 3 (±)): 0 number of persons
- Number of subjects showing ±, + or ++ reactivity 3rd (3% by weight, line 2 of 3 (+)): 0 number of persons
- Number of subjects showing ±, + or ++ reactivity 3rd (3% by weight, line 3 of 3 (++)): 0 number of persons
- Number of subjects showing ±, + or ++ reactivity 4th (3% by weight, line 1 of 3 (±)): 0 number of persons
- Number of subjects showing ±, + or ++ reactivity 4th (3% by weight, line 2 of 3 (+)): 0 number of persons
- Number of subjects showing ±, + or ++ reactivity 4th (3% by weight, line 3 of 3 (++)): 0 number of persons
- Number of subjects showing ±, + or ++ reactivity 5th (3% by weight, line 1 of 3 (±)): 0 number of persons
- Number of subjects showing ±, + or ++ reactivity 5th (3% by weight, line 2 of 3 (+)): 0 number of persons
- Number of subjects showing ±, + or ++ reactivity 5th (3% by weight, line 3 of 3 (++)): 0 number of persons
- Number of subjects showing ±, + or ++ reactivity 6th (3% by weight, line 1 of 3 (±)): 0 number of persons
- Number of subjects showing ±, + or ++ reactivity 6th (3% by weight, line 2 of 3 (+)): 0 number of persons
- Number of subjects showing ±, + or ++ reactivity 6th (3% by weight, line 3 of 3 (++)): 0 number of persons
- Number of subjects showing ±, + or ++ reactivity 7th (3% by weight, line 1 of 3 (±)): 0 number of persons
- Number of subjects showing ±, + or ++ reactivity 7th (3% by weight, line 2 of 3 (+)): 0 number of persons
- Number of subjects showing ±, + or ++ reactivity 7th (3% by weight, line 3 of 3 (++)): 0 number of persons
- Number of subjects showing ±, + or ++ reactivity 8th (3% by weight, line 1 of 3 (±)): 0 number of persons
- Number of subjects showing ±, + or ++ reactivity 8th (3% by weight, line 2 of 3 (+)): 0 number of persons
- Number of subjects showing ±, + or ++ reactivity 8th (3% by weight, line 3 of 3 (++)): 0 number of persons
- Number of subjects showing ±, + or ++ reactivity 9th (3% by weight, line 1 of 3 (±)): 0 number of persons
- Number of subjects showing ±, + or ++ reactivity 9th (3% by weight, line 2 of 3 (+)): 0 number of persons
- Number of subjects showing ±, + or ++ reactivity 9th (3% by weight, line 3 of 3 (++)): 0 number of persons
- Average reactivity (3% by weight): 0
- skin reactivity (ICDRG criteria) (within the content range 0.5, 1, 3% by weight, 9 patches, 15 subjects): −

From patent US10550142B2, “Quercetin-based compound” (AMOREPACIFIC CORPORATION, priority 2016, dated 2020)
